From US11390631B1, “Benzodiazepine derivatives as RSV inhibitors” (priority 2015, dated 2022)
Like-named read-outs stand apart in the source and are kept apart here.

Tested on: Human RSV-A (“Long” strain)
Test: RSV-A assay: inhibition of cytopathic effect in Hep-2 cells, ATPlite readout
Format: cell-based, Human respiratory syncytial virus (HRSV)
Details: read-out: Human RSV-A (“Long” strain) EC50
Summary of the method: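 Cytopathic-effect protection was read as ATP content (ATPlite luminescence) after a 5-day incubation. Setup: Hep-2 cells at 8,000 per well, RSV-A Long at MOI 0.1, 2-fold serial compound dilutions in duplicate. Cytotoxicity (CC50) was measured on an identical uninfected plate run in parallel.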

[1] = human respiratory syncytial virus, HEp-2, 120 h
[2] = Hep-2 cells, MOI 0.1, 5-day incubation, ATPlite

Row | SMILES | EC50 [1] [nM] | EC50 [2] [nM]
1 | COCCNc1sc(C)nc1-c1nnc(N[C@H]2N=C(c3ccccc3)c3ccccc3NC2=O)o1 [Example 335] | < 400 | 
2 | COCCNc1sc(C(F)(F)F)nc1-c1nnc(N[C@H]2N=C(c3ccccc3)c3ccccc3NC2=O)o1 [Example 473] | < 400 | 
3 | O=C1Nc2ccccc2C(c2ccccc2)=N[C@@H]1Nc1nnc(-c2ncc(C(F)(F)F)cc2N2CCOc3ccccc32)o1 [Example 468] | > 800 | 
4 | O=C1Nc2ccccc2C(c2ccccc2)=N[C@@H]1Nc1nnc(-c2occc2N2CCOCC2)o1 [Example 348] | < 400 | 
5 | COCCNc1ccc(-c2nnc(NC3N=C(c4ccccc4)c4ccccc4NC3=O)o2)cc1 (stereo not shown) [Example 117] | > 800 | 
6 | O=C1Nc2ccccc2C(c2ccccc2)=N[C@H]1Nc1nnc(-c2cn(CC(F)(F)F)nc2N2CCOCC2)o1 [Example 489] |  | > 800
7 | COCC(C)(C)Nc1cc(C(F)(F)F)cnc1-c1nnc(N[C@H]2N=C(c3ccccc3)c3ccccc3NC2=O)o1 [Example 414] | > 800 | 
8 | O=C1Nc2ccccc2C(c2ccccc2)=NC1Nc1nnc(-c2ccc(N3CCCC3)cc2)o1 (stereo not shown) [Example 184] | 400 to 800 | 
9 | COC[C@H]1C[C@@H]1c1cc(C(F)(F)F)cnc1-c1nnc(N[C@H]2N=C(c3ccccc3)c3ccccc3NC2=O)o1 [Example 482] |  | > 800
10 | O=C1Nc2ccccc2C(c2ccccc2)=N[C@@H]1Nc1nnc(-c2cc3ccccc3nc2N2CCOCC2)o1 [Example 434] | < 400 | 
11 | O=C1Nc2ccccc2C(c2ccccc2)=N[C@@H]1Nc1nnc(-c2nc(-c3ccc(F)cc3)sc2N2CCOCC2)o1 [Example 428] | < 400 | 
12 | O=C1Nc2ccccc2C(c2ccccc2)=N[C@@H]1Nc1nnc(-c2cnc(C(F)(F)F)nc2N2CC3CCC(C2)O3)o1 [Example 290] | > 800 | 
13 | Cn1cc(-c2nc(-c3nnc(N[C@H]4N=C(c5ccccc5)c5ccccc5NC4=O)o3)c(N3CCOCC3)s2)cn1 [Example 399] | < 400 | 
14 | N#Cc1ccn2ncc(-c3nnc(N[C@H]4N=C(c5ccccc5)c5ccccc5NC4=O)o3)c2c1 [Example 441] | > 800 | 
15 | O=C1Nc2ccccc2C(c2ccccc2)=NC1Nc1nnc(-c2ccc(N3CCOCC3)nc2)o1 (stereo not shown) [Example 115] | < 400 | 
16 | O=C1Nc2ccccc2C(c2ccccc2)=N[C@@H]1Nc1nnc(-c2ccsc2N2CCOCC2)o1 [Example 471] | < 400 | 
17 | COCCCc1cc(C(F)(F)F)cnc1-c1nnc(N[C@H]2N=C(c3ccccc3)c3ccccc3NC2=O)o1 [Example 413] |  | > 800
18 | O=C1Nc2ccccc2C(c2ccccc2)=NC1Nc1nnc(-c2ccc(-n3ccnc3)nc2)o1 (stereo not shown) [Example 232] | > 800 | 
19 | O=C1Nc2ccccc2C(c2ccccc2)=NC1Nc1nnc(-c2ncc(C(F)(F)F)cc2CCO)o1 (stereo not shown) [Example 450] | > 800 | 
20 | O=C1Nc2ccccc2C(c2ccccc2)=NC1Nc1nnc([C@@H]2CCCN2C2CCNCC2)o1 (stereo partly shown) [Example 227] | > 800 | 
21 | O=C1Nc2ccccc2C(c2ccccc2)=N[C@@H]1Nc1nnc(-c2ncc(C(F)(F)F)cc2N[C@@H]2CC[C@@H]2O)o1 [Example 418] |  | > 800
22 | CN(c1nnc(-c2ccc(F)cc2)o1)C1N=C(c2ccccc2)c2ccccc2NC1=O (stereo not shown) [Example 209] | > 800 | 
23 | N#Cc1cnc(N2CCOCC2)c(-c2nnc(N[C@H]3N=C(c4ccccc4)c4ccccc4NC3=O)o2)c1 [Example 174] | < 400 | 
24 | COC[C@@H](C)Nc1sc(C(F)(F)F)nc1-c1nnc(N[C@H]2N=C(c3ccccc3)c3ccccc3NC2=O)o1 [Example 451] | 400 to 800 | 

Row | SMILES | EC50 [1] [nM] | EC50 [2] [nM]
25 | O=C1Nc2ccccc2C(c2ccccc2)=N[C@H]1Nc1nnc(-c2ccccc2N2CCOCC2)o1 [Example 125b] | > 800 | 
26 | C[C@@H]1CN(c2ncccc2-c2nnc(NC3N=C(c4ccccc4)c4ccccc4NC3=O)o2)CCO1 (stereo partly shown) [Example 262] | > 800 | 
27 | O=C1Nc2ccccc2C(c2ccccc2)=N[C@@H]1Nc1nnc(-c2cnc(N3CCOCC3)nc2)o1 [Example 165] | 400 to 800 | 
28 | O=C1Nc2ccccc2C(c2ccccc2)=NC1Nc1ccc(-c2ccc(F)cc2)nn1 (stereo not shown) [Example 374] | > 800 | 
29 | O=C1Nc2ccccc2C(c2ccccc2)=NC1Nc1nnc(C2CC2)[nH]1 (stereo not shown) [Example 372] | > 800 | 
30 | COCCn1nccc1-c1nnc(N[C@H]2N=C(c3ccccc3)c3ccccc3NC2=O)o1 [Example 310] | > 800 | 
31 | O=C1Nc2ccccc2C(c2ccccc2)=N[C@@H]1Nc1nnc(-c2ncc(C(F)(F)F)cc2N[C@H]2CC[C@H]2O)o1 [Example 417] |  | > 800
32 | O=C1Nc2ccccc2C(c2ccccc2)=N[C@@H]1Nc1nnc(-c2ccc(C3CC3)nc2N2CCOCC2)o1 [Example 154] | < 400 | 
33 | O=C1Nc2ccccc2C(c2ccccc2)=NC1Nc1nnc(-c2ncccc2N2CCOCC2)o1 (stereo not shown) [Example 132] | < 400 | 
34 | O=C1Nc2ccccc2C(c2ccccc2)=NC1Nc1nnc(-c2ccncc2N2CCOCC2)o1 (stereo not shown) [Example 142] | 400 to 800 | 
35 | COCCOc1ccccc1-c1nnc(NC2N=C(c3ccccc3)c3ccccc3NC2=O)o1 (stereo not shown) [Example 229] | > 800 | 
36 | O=C1Nc2ccccc2C(c2cccc(F)c2)=NC1Nc1nnc(-c2ccc(F)cc2)o1 (stereo not shown) [Example 380] | 400 to 800 | 
37 | O=C1Nc2ccccc2C(c2ccccc2)=NC1Nc1nnc(-c2ccc(-n3cncn3)c(F)c2)o1 (stereo not shown) [Example 216] | 400 to 800 | 
38 | COc1ccccc1-c1nc(-c2nnc(N[C@H]3N=C(c4ccccc4)c4ccccc4NC3=O)o2)c(N2CCOCC2)s1 [Example 342] | < 400 | 
39 | O=C1Nc2ccccc2C(c2ccccc2)=NC1Nc1nnc(-c2nccnc2N2CCOCC2)o1 (stereo not shown) [Example 143] | < 400 | 
40 | O=C1Nc2ccccc2C(c2ccccc2)=NC1Nc1nnc(-c2ccc(N3CCOCC3)cc2C(F)(F)F)o1 (stereo not shown) [Example 147] | > 800 | 
41 | O=C1Nc2ccccc2C(c2ccccc2)=NC1Nc1nnc([C@@H]2CCCO2)o1 (stereo partly shown) [Example 207] | > 800 | 
42 | O=C1Nc2ccccc2C(c2ccccc2)=N[C@@H]1Nc1nnc(-c2ncc(C(F)(F)F)cc2N2CCC(O)CC2)o1 [Example 328] | > 800 | 
43 | COCCCc1sc(C(F)(F)F)nc1-c1nnc(N[C@H]2N=C(c3ccccc3)c3ccccc3NC2=O)o1 [Example 396] | > 800 | 
44 | O=C1Nc2ccccc2C(c2ccccc2)=NC1Nc1ncc(-c2ccccc2)s1 (stereo not shown) [Example 85] | > 800 | 
45 | O=C1Nc2ccccc2C(c2ccccc2)=NC1Nc1nnc(-c2nc(Br)sc2N2CCOCC2)o1 (stereo not shown) [Example 400] | < 400 | 
46 | COC[C@@H]1C[C@H]1c1cc(C(F)(F)F)cnc1-c1nnc(N[C@@H]2N=C(c3ccccc3)c3ccccc3NC2=O)o1 [Example 481] |  | > 800
47 | O=C1Nc2ccccc2C(c2ccccc2)=NC1Nc1nnc(-c2cnccc2N2CCOCC2)o1 (stereo not shown) [Example 133] | 400 to 800 | 
48 | Cn1ncc(-c2nnc(N[C@H]3N=C(c4ccccc4)c4ccccc4NC3=O)o2)c1N1CCOCC1 [Example 177] | > 800 | 

Row | SMILES | EC50 [1] [nM] | EC50 [2] [nM]
49 | O=C1Nc2ccccc2C(c2ccccc2)=N[C@@H]1Nc1ncc(-c2ncc(C(F)(F)F)cc2N2CCOCC2)o1 [Example 442] |  | < 400
50 | Cn1nnc(-c2ccc(-c3nnc(NC4N=C(c5ccccc5)c5ccccc5NC4=O)o3)cc2)n1 (stereo not shown) [Example 186] | > 800 | 
51 | CC(C)(O)CNc1cc(C(F)(F)F)cnc1-c1nnc(N[C@H]2N=C(c3ccccc3)c3ccccc3NC2=O)o1 [Example 297] | < 400 | 
52 | C[C@H]1CN(c2cc(C#N)cnc2-c2nnc(N[C@H]3N=C(c4ccccc4)c4ccccc4NC3=O)o2)CCO1 [Example 329] | < 400 | 
53 | CN1CCN(c2ncccc2-c2nnc(NC3N=C(c4ccccc4)c4ccccc4NC3=O)o2)CC1 (stereo not shown) [Example 237] | > 800 | 
54 | O=C1Nc2ccccc2C(c2ccccc2)=N[C@H]1Nc1nnc(-c2nc(C(F)(F)F)sc2N2CCO[C@@H]3C[C@@H]32)o1 (single isomer, unassigned) [Example 487] |  | > 800
55 | COC[C@H]1C[C@@H]1c1sc(C(F)(F)F)nc1-c1nnc(N[C@H]2N=C(c3ccccc3)c3ccccc3NC2=O)o1 [Example 395] |  | > 800
56 | O=C1Nc2ccccc2C(c2ccccc2)=NC1Nc1nnc(-c2ccc(N3CCOCC3)cn2)o1 (stereo not shown) [Example 114] | > 800 | 
57 | O=C1Nc2ccccc2C(c2ccccc2)=NC1Nc1cc(N2CCOCC2)cnn1 (stereo not shown) [Example 463] | > 800 | 
58 | CO[C@@H]1COC[C@H]1Nc1cc(C(F)(F)F)cnc1-c1nnc(N[C@H]2N=C(c3ccccc3)c3ccccc3NC2=O)o1 [Example 436] | < 400 | 
59 | O=C1Nc2ccccc2C(c2ccccc2)=NC1Nc1nnc(-c2ccncc2N2CCCCC2)o1 (stereo not shown) [Example 141] | > 800 | 
60 | CC(C)(C)c1nnc(NC2N=C(c3ccccc3)c3ccccc3NC2=O)o1 (stereo not shown) [Example 189] | > 800 | 
61 | O=C1Nc2ccccc2C(c2ccccc2)=NC1Nc1nnc(-c2cccnc2N2CCC(F)CC2)o1 (stereo not shown) [Example 256] | > 800 | 
62 | Cc1nc(-c2nnc(NC3N=C(c4ccccc4)c4ccccc4NC3=O)o2)ccc1C#N (stereo not shown) [Example 200] | 400 to 800 | 
63 | O=C1Nc2ccccc2C(c2ccccc2)=NC1Nc1nnc(-c2cccc(N3CCOCC3)c2)o1 (stereo not shown) [Example 111] | > 800 | 
64 | CC1(Nc2nnc(-c3ccc(F)cc3)o2)N=C(c2ccccc2)c2ccccc2NC1=O (stereo not shown) [Example 230] | > 800 | 
65 | CN(C)CCOc1ccccc1-c1nnc(NC2N=C(c3ccccc3)c3ccccc3NC2=O)o1 (stereo not shown) [Example 234] | > 800 | 
66 | CN1CCN(c2cc(C(F)(F)F)cnc2-c2nnc(N[C@H]3N=C(c4ccccc4)c4ccccc4NC3=O)o2)CC1=O [Example 296] | > 800 | 
67 | O=C1Nc2ccccc2C(c2ccccc2)=N[C@@H]1Nc1nnc(-c2cnc(-n3cccn3)nc2N2CCOCC2)o1 [Example 172] | > 800 | 
68 | N#Cc1cnc(-c2nnc(N[C@H]3N=C(c4ccccc4)c4ccccc4NC3=O)o2)c(N2CCOCC2)c1 [Example 325] | < 400 | 
69 | CN(CC(C)(C)O)c1cc(C(F)(F)F)cnc1-c1nnc(N[C@H]2N=C(c3ccccc3)c3ccccc3NC2=O)o1 [Example 308] | > 800 | 
70 | O=C1Nc2ccccc2C(c2ccccc2)=N[C@@H]1Nc1nnc(-c2ncc(C(F)(F)F)cc2NC[C@@H]2CCCO2)o1 [Example 419] | 400 to 800 | 
